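Following 48 hours of exposure in 96-well plates, responses at five concentrations were used to interpolate endpoints linearly. GI50 marks 50% less growth.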 The source made the active and inactive calls. Cut-off read from the data, not from the text of the source: active = GI50 up to about 1.1 µM and inactive = higher.
How the values were obtained:
Test in all cases: inhibition of tumour cell growth, NCI panel, 48 h
A549 = tested on: A549
ACHN = tested on: ACHN
CAKI-1 = tested on: CAKI-1
CCRF-CEM = tested on: CCRF-CEM
COLO 205 = tested on: COLO 205
HL-60 = tested on: HL-60
HT-29 = tested on: HT-29
NCI-H226 = tested on: NCI-H226
NCI-H23 = tested on: NCI-H23
RPMI-8226 = tested on: RPMI-8226
SF-268 = tested on: SF-268
SN12C = tested on: SN12C
SNB-75 = tested on: SNB-75
SW-620 = tested on: SW-620
UACC-62 = tested on: UACC-62
OVCAR-3 = tested on: OVCAR-3
TK-10 = tested on: TK-10

| Compound | GI50 (A549) | GI50 (ACHN) | GI50 (CAKI-1) | GI50 (CCRF-CEM) | GI50 (COLO 205) | GI50 (HL-60) | GI50 (HT-29) | GI50 (NCI-H226) | GI50 (NCI-H23) | GI50 (RPMI-8226) | GI50 (SF-268) | GI50 (SN12C) | GI50 (SNB-75) | GI50 (SW-620) | GI50 (UACC-62) | GI50 (OVCAR-3) | GI50 (TK-10) |
| --- | --- | --- | --- | --- | --- | --- | --- | --- | --- | --- | --- | --- | --- | --- | --- | --- | --- |
| CCN(CC)c1ccc(C(=C2C=CC(=[N+](CC)CC)C=C2)c2ccccc2)cc1 | 0.0348 µM (active) | 0.0313 µM (active) | 0.164 µM (active) | 0.0121 µM (active) | 0.0307 µM (active) | < 0.01 µM (active) | < 0.01 µM (active) | 0.023 µM (active) | 0.0283 µM (active) | < 0.01 µM (active) | 0.0366 µM (active) | 0.0254 µM (active) | 0.0586 µM (active) | 0.0291 µM (active) | 0.0451 µM (active) |  |  |
| c1ccc2c3nc(C4CCCC4)nc-3c(NC3CCCC3)[nH]c2c1 | 21 µM (inactive) | 25.7 µM (inactive) |  | 5.89 µM (inactive) | 19 µM (inactive) | 2.3 µM (inactive) | 4.6 µM (inactive) | 24.7 µM (inactive) | 15.7 µM (inactive) | 21.2 µM (inactive) | 16.9 µM (inactive) | 32.7 µM (inactive) | 66.1 µM (inactive) | 5.43 µM (inactive) | 14 µM (inactive) | 12.5 µM (inactive) | 35.2 µM (inactive) |
| O=c1c2cc3ccccc3n2c(=O)c2cc3ccccc3n12 | > 100 µM (inactive) | > 100 µM (inactive) | > 100 µM (inactive) | > 100 µM (inactive) |  | > 100 µM (inactive) | > 100 µM (inactive) | > 100 µM (inactive) | > 100 µM (inactive) | > 100 µM (inactive) | > 100 µM (inactive) | > 100 µM (inactive) | > 100 µM (inactive) | > 100 µM (inactive) | > 100 µM (inactive) | > 100 µM (inactive) | > 100 µM (inactive) |
| CC(C)N(O)C(=N)c1ccccc1 | > 100 µM (inactive) |  | > 100 µM (inactive) |  |  | > 100 µM (inactive) | > 100 µM (inactive) | > 100 µM (inactive) | > 100 µM (inactive) |  | > 100 µM (inactive) | > 100 µM (inactive) | > 100 µM (inactive) | > 100 µM (inactive) |  |  | > 100 µM (inactive) |
| CCOC(=O)/C(C#N)=C1\N[C@H](C(=O)OCC)CO1 | > 100 µM (inactive) | > 100 µM (inactive) | > 100 µM (inactive) | > 100 µM (inactive) | > 100 µM (inactive) | > 100 µM (inactive) | > 100 µM (inactive) | > 100 µM (inactive) | > 100 µM (inactive) | > 100 µM (inactive) | > 100 µM (inactive) | > 100 µM (inactive) |  | > 100 µM (inactive) | > 100 µM (inactive) | > 100 µM (inactive) |  |
| CCC(=O)Nc1nc2c(ncn2C2OC(COC(=O)CC)C(OC(=O)CC)C2OC(=O)CC)c(=O)[nH]1 (stereo not given) | > 100 µM (inactive) | > 100 µM (inactive) | > 100 µM (inactive) |  |  | 46.6 µM (inactive) | > 100 µM (inactive) | > 100 µM (inactive) |  | > 100 µM (inactive) | > 100 µM (inactive) | > 100 µM (inactive) | > 100 µM (inactive) | > 100 µM (inactive) | > 100 µM (inactive) | > 100 µM (inactive) |  |
| O=c1c2cc(Br)ccc2[nH]c(=S)n1-c1ccc(Br)cc1 | > 100 µM (inactive) | > 100 µM (inactive) |  |  | > 100 µM (inactive) | > 100 µM (inactive) | > 100 µM (inactive) | > 100 µM (inactive) | > 100 µM (inactive) | > 100 µM (inactive) | > 100 µM (inactive) | 75 µM (inactive) | 12.1 µM (inactive) | > 100 µM (inactive) |  | 52.4 µM (inactive) | > 100 µM (inactive) |
| O=C(CCc1nnc(S)[nH]1)NC12CC3CC(CC(C3)C1)C2 | > 100 µM (inactive) | > 100 µM (inactive) | > 70.5 µM (inactive) | > 100 µM (inactive) | > 100 µM (inactive) | > 100 µM (inactive) | > 100 µM (inactive) | > 100 µM (inactive) | > 100 µM (inactive) |  | > 10 µM (inactive) | > 100 µM (inactive) | > 100 µM (inactive) | > 100 µM (inactive) | > 100 µM (inactive) | > 100 µM (inactive) | > 100 µM (inactive) |
| CN(C)C(=N/O)/C(=N\O)N(C)C | > 100 µM (inactive) | > 100 µM (inactive) | > 100 µM (inactive) | > 100 µM (inactive) |  | > 100 µM (inactive) | > 100 µM (inactive) | 15.6 µM (inactive) | > 100 µM (inactive) | > 100 µM (inactive) | > 100 µM (inactive) | > 100 µM (inactive) | > 100 µM (inactive) | > 100 µM (inactive) | > 100 µM (inactive) |  | > 100 µM (inactive) |
| O=CCCCC(Sc1ccccc1)Sc1ccccc1 | 29.6 µM (inactive) | 16.3 µM (inactive) | 56.8 µM (inactive) | 12 µM (inactive) | 23.5 µM (inactive) | 6.1 µM (inactive) |  |  | 11.5 µM (inactive) | 16 µM (inactive) | 18.4 µM (inactive) | 22 µM (inactive) | 18.2 µM (inactive) | 11.4 µM (inactive) | 7.67 µM (inactive) | 26.2 µM (inactive) | 32.4 µM (inactive) |
| COC(=O)C(=O)C(C#N)c1ccc(CC#N)cc1 (stereo not given) | > 100 µM (inactive) | > 100 µM (inactive) | > 100 µM (inactive) | > 100 µM (inactive) |  | > 100 µM (inactive) | > 100 µM (inactive) | > 100 µM (inactive) | > 100 µM (inactive) | > 100 µM (inactive) | > 100 µM (inactive) | > 100 µM (inactive) | > 100 µM (inactive) | > 100 µM (inactive) | > 100 µM (inactive) | > 100 µM (inactive) | > 100 µM (inactive) |
| CC1(C)OC(=O)C(=C2CCC(C(=O)Nc3cccc(C(F)(F)F)c3)N2)C(=O)O1 (stereo not given) | > 100 µM (inactive) | 50.2 µM (inactive) | 9.77 µM (inactive) | 44.8 µM (inactive) | > 100 µM (inactive) | 67.8 µM (inactive) | 75.7 µM (inactive) | 91 µM (inactive) | > 100 µM (inactive) | 51.2 µM (inactive) | > 100 µM (inactive) | > 100 µM (inactive) | > 100 µM (inactive) | > 100 µM (inactive) | 45.2 µM (inactive) | 82 µM (inactive) | 86.9 µM (inactive) |
| O=C[C@]12CC=C3OC4OC5(CCCCC5)OC4[C@H]3[C@H]1C(=O)C=CC2=O (stereo not given in full) | 11.6 µM (inactive) | 18.2 µM (inactive) | 23 µM (inactive) | 2.44 µM (inactive) |  | 0.406 µM (active) | 40.2 µM (inactive) | > 100 µM (inactive) | > 10 µM (inactive) |  | 8.71 µM (inactive) | 52.8 µM (inactive) |  | 19.3 µM (inactive) | 21.5 µM (inactive) |  | 35.1 µM (inactive) |
| O=[N+]([O-])c1cccc(C2=NN(c3ccccc3)C[N+](c3ccc(Br)cc3)=N2)c1 | > 100 µM (inactive) | 93.5 µM (inactive) | > 100 µM (inactive) |  | > 100 µM (inactive) |  | 47.4 µM (inactive) |  | > 100 µM (inactive) | 82 µM (inactive) | > 100 µM (inactive) | > 100 µM (inactive) | > 100 µM (inactive) | > 100 µM (inactive) | > 100 µM (inactive) |  | > 100 µM (inactive) |
| CCCC/C=C/C=C/C=C/CCCCCCCC(=O)OCC(COC(=O)CCCCCCC/C=C/C1C=CC(CCCC)C(C(=O)O)C1C(=O)O)OC(=O)CCCCCCC/C=C/C=C/C=C/CCCC.OCCNCO (stereo not given) | 18.8 µM (inactive) | 19 µM (inactive) | 28.8 µM (inactive) | 11.9 µM (inactive) | 15.8 µM (inactive) | 21.9 µM (inactive) | 16.7 µM (inactive) | 17.5 µM (inactive) | 19.4 µM (inactive) | 3.78 µM (inactive) | 17.5 µM (inactive) | 20 µM (inactive) | 19.2 µM (inactive) | 4.05 µM (inactive) | 14.8 µM (inactive) | 17.9 µM (inactive) | 19.1 µM (inactive) |
| c1cc(-c2cn[nH]c2)cc(-c2cn[nH]c2)c1 | 20.1 µM (inactive) |  | 8.04 µM (inactive) | 29.4 µM (inactive) | 53.3 µM (inactive) | 30.9 µM (inactive) |  |  | 47 µM (inactive) | 32.7 µM (inactive) | 25.8 µM (inactive) | 39.4 µM (inactive) | 6.76 µM (inactive) | 30.4 µM (inactive) | 11.6 µM (inactive) | 33.5 µM (inactive) | 16.7 µM (inactive) |
| COc1ccc(/C=C2\SC(c3ccc(OC)cc3)N(NC(=O)Cc3ccccc3)C2=O)cc1 (stereo not given) | > 100 µM (inactive) | > 100 µM (inactive) | > 100 µM (inactive) | > 100 µM (inactive) | > 100 µM (inactive) | 94.8 µM (inactive) | > 100 µM (inactive) | > 100 µM (inactive) | > 100 µM (inactive) | 76.4 µM (inactive) | > 100 µM (inactive) | > 100 µM (inactive) | > 100 µM (inactive) | > 100 µM (inactive) | > 100 µM (inactive) |  | > 100 µM (inactive) |
| O=C1/C(=C/c2ccccc2Cl)COc2ccccc21 | 22.6 µM (inactive) | 19.1 µM (inactive) |  | 4.73 µM (inactive) | 21.7 µM (inactive) | 17.6 µM (inactive) | 19 µM (inactive) |  | 19.1 µM (inactive) | 3.53 µM (inactive) | 17.5 µM (inactive) |  | 18 µM (inactive) | 5.73 µM (inactive) |  | 18.2 µM (inactive) | 13.8 µM (inactive) |

From ChEMBL document CHEMBL1201862, “PubChem BioAssay data set” (2004)
